What was measured:
[1] = in vivo; conditions: both, Kunming, mouse, in vivo, ip
Experimental: (§1) Solvent: 0.9% saline and 0.5% CMC-Na solution. According to pre-test results, design 5 dose gradient for each sample, dose spacing was 0.8 times. […] Experimental volume is 0.5 ml/20 g mouse. A single intraperitoneal administration is used. Kunming mice were taken and grouped randomly by gender, and intraperitoneal administration according to dose designation was set to observe the immediate reaction after administration in mice. Dead animals were dissected to observe, surviving animals continued to observe two weeks, and the animal deaths in two weeks were recorded. After two weeks, surviving animals were dissected, observed substantial organ lesions, and the organs having substantive lesions were further for histological examination. According to the number of deaths in each group of animals, calculating the median lethal dose (LD50 value) by Bliss method, and further, calculating the maximum tolerated dose (MTD) for less toxic compounds.

[2] = tested on: SK-OV-3 (human ovarian cancer cells); assay: Antitumor screening in vitro, MTT assay, SK-OV-3; assay type: cell-based; conditions: 48 hours, SK-OV-3 cells
Experimental: (§2) Cell lines: BGC (human gastric cancer cells), A375 (human malignant melanoma cells), 769-P (human renal carcinoma cells), KB (human oral epidermoid carcinoma cells), SK-OV-3 (human ovarian cancer cells), etc, were selected, and the test method was the MTT assay. Cisplatin was as a positive control.
(§3) Specific methods are as follows: cells growing well in the logarithmic phase were seeded in 96-well plates at a concentration of 1×10^4 cells/ml, and then were placed in 37° C., containing 5% CO2 incubator for 24 hours. After discarding the old solution, changed fresh medium, and added sterilization treatment compound, and then cultured for 48 hours. After discarding the culture medium, 20 ul RPMI1640 medium containing 5 mg/ml MTT were added to each well in 96-well plates and cells were cultured for 4 hours. After the supernatant was carefully removed, 100 μl DMSO was added to each well, and the plates were Oscillated about 10 min to dissolve the precipitate, followed by detecting OD value in wavelength 490 nm by the microplate reader. Cell survival rate for each sample concentrations was determined by the following formula: The mean survival rate %=the average OD value of sample group/the average OD value of control group×100%
(§4) Morphological studies by mapping with the logarithm of the drug concentration and the mean survival rate % of each sample to obtain IC50 values for each sample.

[3] = tested on: KB (human oral epidermoid carcinoma cells); assay: Antitumor screening in vitro, MTT assay, KB; assay type: cell-based; conditions: 48 hours
Experimental: as §2, §3, §4

[4] = tested on: A375 (human malignant melanoma cells); assay: Antitumor screening in vitro, MTT assay, A375; assay type: cell-based
Experimental: as §2, §3, §4

[5] = tested on: BGC (human gastric cancer cells); assay: Antitumor screening in vitro, MTT assay, BGC; assay type: cell-based; conditions: 48 hours
Experimental: as §2, §3, §4

[6] = tested on: 769-P (human renal carcinoma cells); assay: Antitumor screening in vitro, MTT assay, 769-P; assay type: cell-based; conditions: 48 hours, 769-P cells
Experimental: as §2, §3, §4

[7] = tested on: Kunming mice; assay: Acute toxicity test in mice (LD50); conditions: Kunming mice, single intraperitoneal administration, observed two weeks, Bliss method
Experimental: as §1

IC50 ([2]; Homo sapiens)	IC50 ([3]; Homo sapiens)	IC50 ([4]; Homo sapiens, A-375, 48 hours)	IC50 ([5]; Homo sapiens)	IC50 ([6]; Homo sapiens)	melting point	Structure (SMILES)	LD50 at 2 weeks [1]	acute toxicity LD50 [7]	IC50 [2]	IC50 [3]	IC50 ([4]; 48 hours)	IC50 [5]	IC50 [6]
> 300 µM	> 300 µM	> 300 µM	59.7 µM	199 µM		c1ccc2c(c1)c1ccncc1n2CCCCn1c2ccccc2c2ccncc21 [Compound 1, 1,4-bis(β-carboline-9-yl) butane]	200 mg/kg						
4.8 µM	6.4 µM	13.1 µM	22.3 µM	6.5 µM		Cc1nccc2c3ccccc3n(CCCCn3c4ccccc4c4ccnc(C)c43)c12 [Compound 7, 1,4-bis(1-methyl-β-carboline-9-yl) butane]	200 mg/kg						
96.8 µM	> 300 µM	> 300 µM	> 300 µM	51.7 µM		Cc1nccc2c3ccccc3n(CCCCCCn3c4ccccc4c4ccnc(C)c43)c12 [Compound 9, 1,6-bis(1-methyl-β-carboline-9-yl) hexane]	200 mg/kg						
> 300 µM	> 300 µM	> 300 µM	> 300 µM	3.1 µM		Cc1nccc2c3ccccc3n(CCCCCCCCn3c4ccccc4c4ccnc(C)c43)c12 [Compound 11, 1,8-bis(1-methyl-β-carboline-9-yl) octane]	200 mg/kg						
7.1 µM	2.8 µM	6.2 µM	75.7 µM	65.6 µM		COc1ccc2c3ccnc(C)c3n(CCCCn3c4cc(OC)ccc4c4ccnc(C)c43)c2c1 [Compound 14, 1,4-bis(7-methoxy-1-methyl-β-carboline-9-yl) butane]	50 mg/kg						
11.7 µM	155 µM	35.3 µM	> 300 µM	> 300 µM		COc1ccc2c3ccnc(C)c3n(CCCCCCCn3c4cc(OC)ccc4c4ccnc(C)c43)c2c1 [Compound 17, 1,7-bis(7-methoxy-1-methyl-β-carboline-9-yl) heptane]	200 mg/kg						
						COc1cc(-c2nccc3c4ccccc4n(CCCCCCn4c5ccccc5c5ccnc(-c6cc(OC)c(OC)c(OC)c6)c54)c23)cc(OC)c1OC [Compound 19, 1,6-bis[1-(3,4,5-trimethoxy)phenyl-β-carboline-9-yl) hexane]		200 mg/kg	> 300 µM	> 300 µM	5.9 µM	> 300 µM	16.8 µM
63.4 µM	> 300 µM	> 300 µM	> 300 µM	> 300 µM		Cc1nccc2c3cc(Br)ccc3n(CCCCCCn3c4ccc(Br)cc4c4ccnc(C)c43)c12 [Compound 22, 1,6-bis(6-bromo-1-methyl-β-carboline-9-yl) hexane]	200 mg/kg						
101 µM	112 µM	43.3 µM	> 300 µM	40 µM		Cc1nccc2c3ccc(OC(C)C)cc3n(CCCCCCCCCn3c4cc(OC(C)C)ccc4c4ccnc(C)c43)c12 [Compound 26, 1,9-bis(7-isopropoxy-1-methyl-β-carboline-9-yl) nonane]	200 mg/kg						
						CCOC(=O)c1cc2c3ccccc3n(CCCCCCn3c4ccccc4c4cc(C(=O)OCC)nc(-c5cc(OC)c(OC)c(OC)c5)c43)c2c(-c2cc(OC)c(OC)c(OC)c2)n1 [Compound 27, 1,6-bis[1-(3,4.5-trimethoxy)phenyl-β-carboline-β-ethyoxylcarbonyl-9-yl]hexane]		300 mg/kg					
36.8 µM	> 300 µM	85.3 µM	270 µM	> 300 µM	224 to 225 °C	c1cncc(-c2nccc3c4ccccc4n(CCCCn4c5ccccc5c5ccnc(-c6cccnc6)c54)c23)c1 [Compound 31, 1,4-bis[1-(pyridine-3-yl)-β-carboline-9-yl) butane]							
67.6 µM	> 300 µM	> 300 µM	> 300 µM	> 300 µM	198 to 199 °C	c1ccc2c(c1)c1ccnc(-c3ccsc3)c1n2CCCCCCn1c2ccccc2c2ccnc(-c3ccsc3)c21 [Compound 33, 1,6-bis[1-(3-thienyl)-β-carboline-9-yl) hexane]							
> 300 µM	> 300 µM	32.1 µM	> 300 µM	> 300 µM		c1ccc2c(c1)c1ccnc(-c3ccsc3)c1n2CCCCCCCCn1c2ccccc2c2ccnc(-c3ccsc3)c21 [Compound 34, 1,8-bis[1-(3-thienyl)-β-carboline-9-yl) octane]	250 mg/kg						
31.8 µM	253 µM	53.5 µM	> 300 µM	18.5 µM	241 to 242 °C	CC(C)c1nccc2c3ccccc3n(CCCCCCn3c4ccccc4c4ccnc(C(C)C)c43)c12 [Compound 39, 1,6-bis(1-isopropyl-β-carboline-9-yl) hexane]							
